Key:
[1] = tested on: U251 malignant glioma cells; assay: Reversible electroporation zone in collagen scaffolds imaged immediately after H-FIRE treatment; format: cell-based
Description: After pulsing, CaCl2, NaCl, KCl, and CaCl2/NaCl solutions were removed and cell culture media was added to each scaffold. For irreversible threshold experiments, the scaffolds were returned to the incubator for 24 hr prior to live/dead staining. For reversible threshold experiments, scaffolds were imaged immediately after treatment.
To visualize ablations, a live/dead stain was performed to visualize live and dead regions of cells in the scaffold. Scaffolds were incubated with 2 μM Calcein AM and 23 μM propidium iodide in phosphate buffered saline (PBS) for 30 minutes at room temperature. Scaffolds were then washed 2× with PBS prior to imaging using an inverted microscope (DMI 6000B, Leica Microsystems) with a 5× objective. Lesion areas were quantified for each treatment using a MATLAB algorithm. Since 24 h post treatment is sufficient to allow any reversibly electroporated cells to recover (as pore resealing happens on the order of minutes), staining the cells immediately after treatment and 24 h later allows for quantification of both the reversible zone of electroporation and irreversible zones of ablation.
To stain the scaffolds, media was removed and replaced with phosphate buffered saline (PBS) containing 2 μM Calcein AM (Invitrogen) and 23 μM PI (Invitrogen) and incubated at room temperature for 30 min. Scaffolds were then washed twice with PBS prior to imaging using an inverted microscope (DMI 6000B, Leica Microsystems) with a 5× objective, filter cubes, and an EM-CCD camera (Hamamatsu C9100). The appropriate filters were used to image Calcein AM (Ex:460-500, DC: 505, EM: 570-640) and propidium iodide (EX:545/26, DC:565, EM:605/70). To determine the reversible zone of electroporation, treatment followed the same electroporation protocol, but Calcein AM and PI were added to the CaCl2 and NaCl solutions at all steps prior to pulsing. Scaffolds were then imaged immediately after treatment.
Irreversible electroporation experiments were repeated 6-12 times for each condition. Reversible electroporation experiments were repeated at least six times. Discrepancies in the number of replicates between conditions were due to bubbles or other defects that may have changed the electric field distribution or prohibited a reliable measurement of ablation area. These scaffolds were excluded from analysis. Two-way ANOVA was used to test for differences in cell death area due to the different applied solutions and pulse waveforms. Tukey post-hoc comparisons were used to examine differences among treatment groups. Statistical analyses were performed with a confidence level of α=0.05 (MP Pro 14). Results are shown as means±standard deviation.
To investigate how CaCl2 and NaCl treatments affect permeabilization of the cells, the areas for reversible electroporation and their corresponding reversible electric field thresholds were characterized. Reversible electroporation thresholds for H-FIRE treatment have not been extensively characterized, making this work one of the first to quantify reversible thresholds for a range of unexplored pulse durations.

[2] = tested on: cells; conditions: cited from earlier work

For `[Ca+2].[Cl-].[Cl-]` [CaCl2, calcium chloride], the “reversible zone larger than the 1 mM NaCl zone” value ([1]; 1 mM CaCl2, 2-1-2 waveform) was 1.56 ×, the “reversible zone larger than the 1 mM NaCl zone” value ([1]; 1 mM CaCl2, 5-1-5 waveform) was 1.7 × and the “reversible zone larger than the 1 mM NaCl zone” value ([1]; 1 mM CaCl2, 10-1-10 waveform) was 1.42 ×. For the same molecule, the “reversible zone larger than the 1 mM NaCl zone” value ([1]; 5 mM CaCl2, 2-1-2 waveform) was 1.66 ×, the “reversible zone larger than the 1 mM NaCl zone” value ([1]; 5 mM CaCl2, 5-1-5 waveform) was 1.73 × and the “reversible zone larger than the 1 mM NaCl zone” value ([1]; 5 mM CaCl2, 10-1-10 waveform) was 1.46 ×. For the same molecule, the “reversible zones larger than irreversible zones” value ([1]; 2-1-2 waveform, 1 mM) was 2.62 ×, the “reversible zones larger than irreversible zones” value ([1]; 2-1-2 waveform, 5 mM) was 1.47 × and the “reversible zones larger than irreversible zones” value ([1]; 5-1-5 waveform, 1 mM) was 1.67 ×. For the same molecule, the “reversible zones larger than irreversible zones” value ([1]; 5-1-5 waveform, 5 mM) was 1.3 ×, the “reversible zones larger than irreversible zones” value ([1]; 10-1-10 waveform, 1 mM) was 1.32 × and the “reversible zones larger than irreversible zones” value ([1]; 10-1-10 waveform, 5 mM) was 1.59 ×. The “difference between reversible and irreversible electroporation areas” value ([1]; FIG. 10) was “decreased”, the “difference between 1 mM and 5 mM treatments, reversible case” value ([1]; imaged immediately after treatment) was “no statistically significant difference” and the “cell death, ECT pulses with calcium versus electroporation alone” value [2] was “more cell death”. The “cellular ATP, ECT pulses with calcium versus electroporation alone” value [2] was “greater decrease”.

Source: patent publication US20210052882A1, “ENHANCED TREATMENT VOLUME AND SELECTIVE ABLATION USING ELECTROPORATION WITH ADJUVANT CALCIUM” (Virginia Tech Intellectual Properties, Inc., priority 2019, published 2021)
